# Measurements: patent US20100256137A1, “INDAZOLAMIDE DERIVATIVES” (MERCK PATENT GESELLSCHAFT MIT BESCHRANKTER HAFTUNG, priority 2007, published 2010)
# Biological target: T1, Recombinant human HSP90a (Homo sapiens, UniProt P07900)
# T1 construct: host or cells: E. coli
# Experiment: HSP90 radioligand filter binding test ([3H]17AAG competition)
# Conditions: [3H]17AAG 0.08 μM, HSP90 1.5 μg/assay, 22° C., 30 min, pH 7.0; read-out: IC50 (HSP90 inhibition)
# Method: In the specific case, a radioligand filter binding test is used. The radioligand used here is tritium-labelled 17-allylaminogeldanamycin, [3H]17AAG. This filter binding test allows a targeted search for inhibitors which interfere with the ATP binding site.
# HEPES filter buffer (50 mM HEPES, pH 7.0, 5 mM MgCl2, BSA 0.01%)
# Multiscreen FB (1 μm) filter plate (Millipore, MAFBNOB 50).
# The 96-well microtitre filter plates are firstly irrigated and coated with 0.1% of polyethylenimine.
# The test is carried out under the following conditions:
# Reaction temperature 22° C.
# Reaction time: 30 min., shaking at 800 rpm
# 50 mM HEPES HCl, pH 7.0, 5 mM MgCl2, 0.01% (w/v) of BSA
# At the end of the reaction, the supernatant in the filter plate is removed by suction with the aid of a vacuum manifold (Multiscreen Separation System, Millipore), and the filter is washed twice.
# The filter plates are then measured in a beta counter (Microbeta, Wallac) with scintillator (Microscint 20, Packard).
# “% of control” is determined from the “counts per minutes” values, and the IC-50 value of a compound is calculated therefrom.
row,SMILES,IC50 [µM]
1,"CCCc1n[nH]c2cc(O)c(C(=O)N3Cc4ccccc4C3C(=O)NCC)cc12 (stereo not drawn) [Compound A48, N-Ethyl-2-(6-hydroxy-3-propyl-1H-indazole-5-carbonyl)-2,3-dihydro-1H-isoindole-1-carboxamide]",1 to 10
2,"CC(C)CCc1n[nH]c2cc(O)c(C(=O)N3Cc4ccc(OC5CCN(C)CC5)cc4C3)cc12 [Compound A30, [6-hydroxy-3-(3-methylbutyl)-1H-indazol-5-yl]-[5-(1-methylpiperidin-4-yloxy)-1,3-dihydroisoindol-2-yl]methanone]",0.01 to 1
3,"COc1cccc(Cc2n[nH]c3cc(O)c(C(=O)N4Cc5ccccc5C4)cc23)c1 [Compound A3, 5-(1,3-Dihydroisoindol-2-ylcarbonyl)-3-(3-methoxybenzyl)-6-hydroxy-1H-indazole]",0.01 to 1
4,"CCN(C)CCOc1ccc2c(c1)CN(C(=O)c1cc3c(CC4CCCC4)n[nH]c3cc1O)C2 [Compound A37, (3-Cyclopentylmethyl-6-hydroxy-1H-indazol-5-yl)-{5-[2-(ethylmethylamino)ethoxy]-1,3-dihydroisoindol-2-yl}methanone]",0.01 to 1
5,Cc1cccc(Cc2n[nH]c3cc(O)c(C(=O)N4CCc5ccccc54)cc23)c1 [Compound A11],0.01 to 1
6,"O=C(c1cc2c(CC3CCCC3)n[nH]c2cc1O)N1Cc2ccccc2C1 [Compound A18, 5-(1,3-Dihydroisoindol-2-ylcarbonyl)-3-cyclopentylmethyl-6-hydroxy-1H-indazole]",0.01 to 1
7,"CCCc1n[nH]c2cc(O)c(C(=O)N3Cc4ccc(OCCN(C)C)cc4C3)cc12 [Compound A26, [5-(2-dimethylaminoethoxy)-1,3-dihydroisoindol-2-yl]-(6-hydroxy-3-propyl-1H-indazol-5-yl)methanone]",0.01 to 1
8,"O=C(c1cc2c(CC3CCCC3)n[nH]c2cc1O)N1Cc2ccc(OCCN3CCCCC3)cc2C1 [Compound A40, (3-Cyclopentylmethyl-6-hydroxy-1H-indazol-5-yl)-[5-(2-piperidin-1-ylethoxy)-1,3-dihydroisoindol-2-yl]methanone]",0.01 to 1
9,"CN1CCC(Oc2ccc3c(c2)CN(C(=O)c2cc4c(CC5CCCC5)n[nH]c4cc2O)C3)CC1 [Compound A31, (3-cyclopentylmethyl-6-hydroxy-1H-indazol-5-yl)-[5-(1-methylpiperidin-4-yloxy)-1,3-dihydroisoindol-2-yl]methanone]",0.01 to 1
10,"CCCCc1n[nH]c2cc(O)c(C(=O)N3Cc4ccc(Br)cc4C3)cc12 [Compound A14, 5-(5-Bromo-1,3-dihydroisoindol-2-ylcarbonyl)-3-butyl-6-hydroxy-1H-indazole]",1 to 10
11,CN(C)CCCOc1ccc2c(c1)CN(C(=O)c1cc3c(CC4CCCC4)n[nH]c3cc1O)C2 [Compound A34],0.01 to 1
12,"CCN(C)CCOc1ccc2c(c1)CN(C(=O)c1cc3c(CCC(C)C)n[nH]c3cc1O)C2 [Compound A36, {5-[2-(Ethylmeethylamino)ethoxy]-1,3-dihydroisoindol-22-yl}-[6-hydroxy-3-(3-methylbutyl)-1H-indazol-5-yl]methanone]",0.01 to 1
13,"CC(C)CCc1n[nH]c2cc(O)c(C(=O)N3Cc4ccc(OCCN5CCCCC5)cc4C3)cc12 [Compound A39, [6-Hydroxy-3-(3-methylbutyl)-1H-indazol-5-yl]-[5-(2-piperidin-1-ylethoxy)-1,3-dihydroisoindol-2-yl]methanone]",0.01 to 1
14,"Cc1cccc(Cc2n[nH]c3cc(O)c(C(=O)N4Cc5ccccc5C4)cc23)c1 [Compound A1, 5-(1,3-dihydroisoindol-2-ylcarbonyl)-3-(3-methylbenzyl)-6-hydroxy-1H-indazole]",0.01 to 1
15,"O=C(c1cc2c(Cc3cccc(Cl)c3)n[nH]c2cc1O)N1CC[C@@H](O)C1 [Compound A7, 5-((R)-3-Hydroxypyrrolidin-1-ylcarbonyl)-3-(3-chlorobenzyl)-6-hydroxy-1H-indazole]",0.01 to 1
16,"CC(C)CCc1n[nH]c2cc(O)c(C(=O)N3Cc4ccc(OCCN(C)C)cc4C3)cc12 [Compound A27, [5-(2-dimethylaminoethoxy)-1,3-dihydroisoindol-2-yl]-[6-hydroxy-3-(3-methylbutyl)-1H-indazol-5-yl]methanone]",0.01 to 1
17,"CCCc1n[nH]c2cc(O)c(C(=O)N3Cc4ccc(Br)cc4C3)cc12 [Compound A15, 5-(5-Bromo-1,3-dihydroisoindol-2-ylcarbonyl)-3-propyl-6-hydroxy-1H-indazole]",0.01 to 1
18,"CC(C)Cc1n[nH]c2cc(O)c(C(=O)N3Cc4ccccc4C3)cc12 [Compound A49, (1,3-Dihydroisoindol-2-yl)(6-hydroxy-3-isobutyl-1H-indazol-5-yl)methanone]",0.01 to 1
19,"N#CCCCOc1ccc2c(c1)CN(C(=O)c1cc3c(CC4CCCC4)n[nH]c3cc1O)C2 [Compound A43, 4-[2-(3-Cyclopentylmethyl-6-hydroxy-1H-indazole-5-carbonyl)-2,3-dihydro-1H-isoindol-5-yloxy]butyronitrile]",0.01 to 1
20,Cc1cccc(Cc2n[nH]c3cc(O)c(C(=O)N4CCN(C)CC4)cc23)c1 [Compound A17],0.01 to 1
21,"CC(C)CCc1n[nH]c2cc(O)c(C(=O)N3Cc4ccc(OCCCN(C)C)cc4C3)cc12 [Compound A33, [5-(3-Dimethylaminopropoxy)-1,3-dihydroisoindol-2-yl]-[6-hydroxy-3-(3-methylbutyl)-1H-indazol-5-yl]methanone]",0.01 to 1
22,"CN(C)CCOc1ccc2c(c1)CN(C(=O)c1cc3c(CC4CCCCC4)n[nH]c3cc1O)C2 [Compound A29, (3-cyclohexylmethyl-6-hydroxy-1H-indazol-5-yl)-[5-(2-dimethylaminoethoxy)-1,3-dihydroisoindol-2-yl]methanone]",0.01 to 1

# Other lines, results leading:
row,IC50 [µM],SMILES
1,0.01 to 1,"O=C(c1cc2c(CC3CCCCC3)n[nH]c2cc1O)N1Cc2ccc(OCCN3CCCCC3)cc2C1 [Compound A41, (3-Cyclohexylmethyl-6-hydroxy-1H-indazol-5-yl)-[5-(2-piperidin-1-ylethoxy)-1,3-dihydroisoindol-2-yl]methanone]"
2,0.01 to 1,"CCN(C)CCOc1ccc2c(c1)CN(C(=O)c1cc3c(CC4CCCCC4)n[nH]c3cc1O)C2 [Compound A38, (3-Cyclohexylmethyl-6-hydroxy-1H-indazol-5-yl)-{5-[2-(ethylmethylamino)ethoxy]-1,3-dihydroisoindol-2-yl}methanone]"
3,0.01 to 1,CCCc1n[nH]c2cc(O)c(C(=O)N3Cc4ccc(N5CCN(C)CC5)cc4C3)cc12 [Compound A20]
4,0.01 to 1,"CN(C)CCOc1ccc2c(c1)CN(C(=O)c1cc3c(CC4CCCC4)n[nH]c3cc1O)C2 [Compound A28, (3-cyclopentylmethyl-6-hydroxy-1H-indazol-5-yl)-[5-(2-dimethylaminoethoxy)-1,3-dihydroisoindol-2-yl]methanone]"
5,0.01 to 1,"CN1CCC(Oc2ccc3c(c2)CN(C(=O)c2cc4c(CC5CCCCC5)n[nH]c4cc2O)C3)CC1 [Compound A32, (3-Cyclohexylmethyl-6-hydroxy-1H-indazol-5-yl)-[5-(1-methylpiperidin-4-yloxy)-1,3-dihydroisoindol-2-yl]methanone]"
6,0.01 to 1,CCCc1n[nH]c2cc(O)c(C(=O)N3Cc4ccc(N5CCOCC5)cc4C3)cc12 [Compound A19]
7,0.01 to 1,Cc1cccc(Cc2n[nH]c3cc(O)c(C(=O)N4CCOCC4)cc23)c1 [Compound A10]
8,0.01 to 1,"O=C(c1cc2c(CC3CCCCC3)n[nH]c2cc1O)N1Cc2ccc(OCCN3CCOCC3)cc2C1 [Compound A47, (3-Cyclohexylmethyl-6-hydroxy-1H-indazol-5-yl)-[5-(2-morpholin-4-ylethoxy)-1,3-dihydroisoindol-2-yl]methanone]"
9,0.01 to 1,"Cc1cccc(Cc2n[nH]c3cc(O)c(C(=O)N4CCCC4)cc23)c1 [Compound A16, 5-(Pyrrolidin-1-ylcarbonyl)-3-(3-methylbenzyl)-6-hydroxy-1H-indazole]"
10,0.01 to 1,"CCCCc1n[nH]c2cc(O)c(C(=O)N3Cc4ccccc4C3)cc12 [Compound A4, 5-(1,3-Dihydroisoindol-2-ylcarbonyl)-3-butyl-6-hydroxy-1H-indazole]"
11,0.01 to 1,"O=C(c1cc2c(Cc3cccc(Cl)c3)n[nH]c2cc1O)N1CCC(O)C1 (stereo not drawn) [Compound A5, 5-(3-Hydroxypyrrolidin-1-ylcarbonyl)-3-(3-chlorobenzyl)-6-hydroxy-1H-indazole]"
12,0.01 to 1,"O=C(c1cc2c(CC3CCCCC3)n[nH]c2cc1O)N1Cc2ccccc2C1 [Compound A50, (3-Cyclohexylmethyl-6-hydroxy-1H-indazol-5-yl)-(1,3-dihydroisoindol-2-yl)methanone]"
13,0.01 to 1,"CN(C)CCCOc1ccc2c(c1)CN(C(=O)c1cc3c(CC4CCCCC4)n[nH]c3cc1O)C2 [Compound A35, (3-Cyclohexylmethyl-6-hydroxy-1H-indazol-5-yl)-[5-(3-dimethylaminopropoxy)-1,3-dihydroisoindol-22-yl]methanone]"
14,0.01 to 1,Cc1cccc(Cc2n[nH]c3cc(O)c(C(=O)N4CCc5ccccc5C4)cc23)c1 [Compound A2]
